According to patent publication US20130210821A1, “Methods for Treating Obesity” (priority 2010, published 2013):
Read-outs that look alike come from different tables or passages of the source.

How the values were obtained:
[1] = molecular target: hMetAP2 (Homo sapiens, UniProt P50579); experiment: MetAP2 enzyme assay; assay type: biochemical
[2] = molecular target: hMetAP1 (Homo sapiens, UniProt P53582); experiment: MetAP1 enzyme assay; assay type: biochemical
[3] = system: HFF; experiment: HFF inhibition (selectivity); assay type: cell-based, human
[4] = system: HUVEC; experiment: HUVEC inhibition (selectivity); assay type: cell-based, human
[5] = Co2+ as metal ion, Table 1, read-out: hMetAP2 CO^2+ IC50
[6] = Mn2+ as metal ion, Table 1, read-out: hMetAP2 Mn^2+ IC50
[7] = Co2+ as metal ion, Table 1, read-out: hMetAP1 CO^2+ IC50
[8] = Mn2+ as metal ion, Table 1, read-out: hMetAP1 Mn^2+ IC50
[9] = Co2+ as metal ion, Table 2, read-out: hMetAP2 Co^2+ IC50
[10] = Mn2+ as metal ion, Table 2, read-out: hMetAP2 Mn^2+ IC50
[11] = Co2+ as metal ion, Table 2, read-out: hMetAP1 Co^2+ IC50
[12] = Mn2+ as metal ion, Table 2, read-out: hMetAP1 Mn^2+ IC50

Sequence of hMetAP2 (P50579 whole entry): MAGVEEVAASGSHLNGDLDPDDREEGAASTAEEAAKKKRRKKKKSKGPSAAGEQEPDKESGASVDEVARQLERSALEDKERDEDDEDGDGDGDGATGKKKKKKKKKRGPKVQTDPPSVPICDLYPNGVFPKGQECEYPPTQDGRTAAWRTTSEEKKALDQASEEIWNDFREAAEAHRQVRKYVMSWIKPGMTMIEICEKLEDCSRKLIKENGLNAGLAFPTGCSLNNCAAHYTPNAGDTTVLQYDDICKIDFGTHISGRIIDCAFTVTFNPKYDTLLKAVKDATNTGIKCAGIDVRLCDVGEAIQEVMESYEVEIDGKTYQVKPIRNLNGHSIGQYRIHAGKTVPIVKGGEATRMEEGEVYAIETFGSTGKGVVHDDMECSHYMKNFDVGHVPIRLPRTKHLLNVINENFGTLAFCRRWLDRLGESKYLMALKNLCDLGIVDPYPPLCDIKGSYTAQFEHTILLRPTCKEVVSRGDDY

IC50 [1, 6] [µM] | IC50 [2, 7] [µM] | IC50 [2, 8] [µM] | IC50 [1, 9] [µM] | IC50 [1, 10] [µM] | IC50 [2, 11] [µM] | IC50 [2, 12] [µM] | SMILES | IC50 ([3]; Homo sapiens, Table 1) [µM] | IC50 ([4]; Homo sapiens, Table 1) [µM] | IC50 ([3]; Table 2) [µM] | IC50 ([4]; Table 2) [µM] | further results
15.2 | > 50 | > 50 |  |  |  |  | Oc1c(CN2CCOCC2)ccc2cccnc12 [Entry 2c] | 9.8 | 33.3 |  |  | IC50 [1, 5]: > 50 µM
 |  |  | > 50 | 2.6 | > 50 | > 50 | O=C(Nc1cc(Cl)c(Cl)cc1Cl)Oc1c(Cl)cc(Cl)c2cccnc12 [Entry 4a] |  |  | 4.9 | 1.3 | 
 | > 50 | > 50 |  |  |  |  | Oc1c(CN2CCCCC2)cc(Cl)c2cccnc12 [Entry 2b] |  |  |  |  | 
 |  |  |  |  |  |  | CN1CCN(Cc2cc(Cl)c3cccnc3c2O)CC1 [Entry 2e] |  |  |  |  | IC50 ([3]; Table 1): 15 µM; IC50 ([4]; Table 1): 9.6 µM
 |  |  | > 50 | 0.9 | > 50 | > 50 | O=C(Nc1cc(Cl)ccc1Cl)Oc1c(Cl)cc(Cl)c2cccnc12 [Entry 4b] |  |  | 3 | 0.11 | 
 |  |  |  |  |  |  | OCCOc1ccc(Cl)c2cccnc12 [Entry 3b] | > 50 | > 50 |  |  | IC50 [1]: > 50 µM; IC50 ([1]; read-out: hMetAP2 CO^2+ IC50, Co2+ as metal ion, Table 1): > 50 µM; IC50 [2]: > 50 µM; IC50 ([2]; read-out: hMetAP1 CO^2+ IC50, Co2+ as metal ion, Table 1): > 50 µM
 |  |  |  |  |  |  | C=CCOc1ccc(Cl)c2cccnc12 [Entry 3a] | > 50 | > 50 |  |  | 
0.33 | 14 | > 50 |  |  |  |  | Oc1c(C(c2ccccc2)N2CCOCC2)cc(Cl)c2cccnc12 (stereo not drawn) [Entry 2f] | 19.2 | 8.6 |  |  | IC50 [1, 5]: 8 µM
 |  |  | 2.2 | 0.07 | > 50 | 12.6 | O=C(Nc1cc(Cl)ccc1Cl)Oc1ccc(Cl)c2cccnc12 [Entry 4c] |  |  | 8 | 1.2 | 
28 |  |  |  |  |  |  | OCCN(CCO)Cc1cc(Cl)c2cccnc2c1O [Entry 2a] | 0.8 | 10.7 |  |  | 
